Assay results taken from patent US20070161585A1, “Immunopotentiator and method for enhancing immunoactivity using the same” (priority 2003, published 2007).

Assays:
[1] = test system: inflammatory cytokines (IL-6, IL-12 and TNF-α) in the serum; assay: Serum inflammatory cytokines by ELISA after single intraperitoneal administration of ODN to mice; assay type: in vivo; details: Balb/c mouse; for IL-6 concentration in the serum / IL-12 concentration in the serum / TNF-α concentration in the serum: 10 nmol ODN in 400 μl saline, 2 hours later, mean; for Induction of inflammatory cytokines (in words): 10 nmol ODN, serum 2 hours later
Method: 10 nmol of each of GATC-dA (sequence containing a GATC sequence), GATC-m^6A (sequence containing a Gm^6ATC sequence), CpG-ODN1668 (sequence containing a non-methylated CpG sequence) and GpC-ODN1720 (sequence containing a […]) shown in Table 1 was collected, and dissolved in 400 μl of a physiological saline solution. The resulting solution was intraperitoneally administered to a Balb/c mouse (male, 6 weeks old; Sankyo Labo-Service). Two hours later, concentrations of inflammatory cytokines (IL-6, IL-12 and TNF-α) in the serum were measured by an enzyme-linked immunosorbent assay (ELISA; AN'ALIZA, Genzyme TECHNE corp.).
Two hours after the administration, the blood was collected from the heart of the mouse, and allowed to stand overnight at 4° C. The serum was collected therefrom by centrifugation (20,000 g, 20 minutes, 4° C.).
By the way, the results shown in FIGS. 1 to 3 are expressed in terms of a mean value±standard deviation. In the graphs, two asterisks indicate “P<0.01”, and three asterisks “P<0.005 (n=3 (IL-12), 4 (IL-6, TNF-α)))”.

[2] = test system: inflammatory cytokines in the serum of the mouse; assay: Serum inflammatory cytokines by ELISA after simultaneous administration of Gm^6ATC sequence and non-methylated CpG sequence to mice; assay type: in vivo; details: 5 nmol CpG-ODN1668 alone or mixed with equimolar second ODN, 400 μl saline, 2 hours later, mean (n=4)
Method: Accordingly, the Gm^6ATC sequence and CpG-ODN1668 containing the non-methylated sequence were simultaneously administered to a mouse to confirm an effect of inducting inflammatory cytokines. Regarding the doses of Gm^6ATC, GATC-dA and CpG-ODN1668, 5 nmol of CpG-ODN1668 was mixed with an equimolar amount of Gm^6ATC or GATC-dA, and the mixture was dissolved in 400 μl of a physiological saline solution. The resulting solution was administered to a mouse. Two hours later, the inflammatory cytokines in the serum of the mouse were measured by ELISA to confirm induction amounts.
The results shown in FIGS. 4 to 6 are expressed in terms of a mean value±standard deviation (n=4). In the graphs, one asterisk indicates “P<0.05”, two asterisks “P<0.01” and three asterisks “P<0.005”.

| Substance | IL-6 concentration in the serum [1] | IL-12 concentration in the serum [1] | TNF-α concentration in the serum [1] | Induction of inflammatory cytokines (in words) [1] | IL-6 concentration in the serum [2] | IL-12 concentration in the serum [2] | TNF-α concentration in the serum [2] |
| --- | --- | --- | --- | --- | --- | --- | --- |
| GpC-ODN1720: phosphothioate-stabilized oligonucleotide, non CpG motif, CC ATG AGC TTC CTG ATG CT (DNA CCATGAGCTTCCTGATGCT; phosphorothioate backbone, chemistry not fully specified) | 28 pg/mL | 33 pg/mL | 47 pg/mL | little induced |  |  |  |
| CpG-ODN1668: phosphothioate-stabilized oligonucleotide, non-methylated CpG motif, TCCATGACGTTCCTGATGCT (DNA TCCATGACGTTCCTGATGCT; phosphorothioate backbone, chemistry not fully specified) | 2100 pg/mL | 1000 pg/mL | 1500 pg/mL | very strong inflammatory cytokines were induced | 530 pg/mL | 730 pg/mL | 760 pg/mL |
| GATC-dA: phosphothioate-stabilized oligonucleotide, non-m^6A motif, TCCATGATCTTCCTGATGCT (DNA TCCATGATCTTCCTGATGCT; phosphorothioate backbone, chemistry not fully specified) | 14 pg/mL | 48 pg/mL | 92 pg/mL |  |  |  |  |
